According to US20230322776A1, “NEW ARYL-PYRIDO-PYRIMIDIN-ONE DERIVATIVES” (Hoffmann-La Roche Inc., priority 2020, published 2023):

Tests used:
[1] = molecular target: BRAF (Homo sapiens, UniProt P15056); experiment: KD BRAF (Table 1; no method described); assay type: binding
[2] = tested on: HCT116 cells (WT BRAF), ERK phospho-T202/Y204; experiment: HTRF assay for P-ERK determination in HCT116 cells (BRAF activation, paradox); assay type: cell-based; conditions: for EC50: Homo sapiens, HCT-116, HCT116 cells, 1 hour drug incubation, activation relative to maximum Dabrafenib-mediated activation (100%), top concentration 10 μM, read-out: P-ERK_HCT-116: EC50—50PCT; for Fold Selectivity HCT-116 EC50-50/ A375: ratio of P-ERK HCT-116 EC50-50PCT to P-ERK A375 IC50
Source text: (§1) A375 is a cellular cancer model expressing V600E mutated BRAF and HCT116 a cellular cancer model expressing WT BRAF. First generation BRAF inhibitors such as e.g. dabrafenib induce a paradox effect on tumour cells in that they inhibit the growth of V600E mutated BRAF cells (such as e.g. A375), while they activate growth in WT BRAF cells (such as e.g. HCT 116). ERK 1,2 phosphorylation (terminal member of the phosphorylation cascade of the MAPK pathway) is hereafter reported as main readout for the activation status of the MAPK pathway. DMEM no-phenol red medium supplemented with L-glutamine was purchased from (Thermo Fisher Scientific). Fetal bovine serum (FBS) was purchased from VWR. Advanced ERK phospho-T202/Y204 kit—10,000 tests was purchased from Cisbio cat #64AERPEH. A375 (catalog #CRL-1619) and HCT116 (catalog #CCL-247) cells were originally obtained from American type Culture Collection (ATCC) and banked by the Roche repository. 384-Well microplates ultized were purchased from Greiner Bio-One, 384-well, (With Lid, HiBase, Low volume cat 784-080).
(§2) HTRF Assay for P-ERK Determination in A375 or HCT116 Cells
(§3) Prior to the assay, A375 and HCT116 cell lines are maintained in DMEM no-phenol red medium supplemented with 10% fetal bovine serum (FBS). Following compound treatment, P-ERK levels are determined by measuring FRET fluorescence signal induced by selective binding of two antibodies provided in the mentioned kit (Cisbio cat #64AERPEH) on ERK protein when phosphorylated at Thr202/Tyr204. Briefly, 8000 cells/well in 12 μl media/well are plated in the 384-well plate and left overnight in the incubator (at 37° C. with 5% CO2-humidified atmosphere), the following day the plate is treated in duplicate with test compounds, dabrafenib and PLX8394 (the latter two as controls) at the following final drug concentrations: 10 μM, 3 μM, 1 μM, 0.3 μM, 0.1 μM, 0.03 μM, 0.01 μM, 0.003 μM and 0.001 μM. All wells are subjected to DMSO normalization and drug incubation occurs for 1 hour. Then, 4 μl of a 4× lysis buffer supplied with the kit are added to the wells, the plate is then centrifuged for 30 second (3000 rpm) and incubated on a plate shaker for 1 h at rt.
(§4) At the end of the incubation 4 μl/well of advanced P-ERK antibody solution (prepared according to manufacturer's instruction) followed by 4 μl/well of criptate P-ERK antibody solution (prepared according to manufacturer's instruction) (Cisbio cat #64AERPEH) are added to test wells.
(§5) In order to allow proper data normalization, control wells non drug treated reported in the following table are always included in each plate (according to manufacturer's instruction):
(§6) The plate is then centrifuged at 3000 rpm for 30 seconds, sealed to prevent evaporation and incubated overnight in the dark at room temperature. The plate is then analyzed and fluorescence emission value collected through a Pherastast FSX (BMG Labtech) apparatus at […]. The obtained fluorescence values are processed according to the formula Ratio=[…]*10000 then the average of the ratio on the blank is subtracted to all values.
Data are normalized in the case of HCT116 cells (BRAF activation) considering the average of the ratio (blank subtracted) derived by DMSO only treated cells as 0% and by considering the average of the ratio (blank subtracted) derived by Dabrafenib treated cells at the concentration which provides the highest signal as 100%. Individual points are fitted with either sigmoidal or bell shape curves, the percentage of activation compared to maximum Dabrafenib-mediated activation is determined.

[3] = tested on: A375 cells (V600E mutated BRAF), ERK phospho-T202/Y204; experiment: HTRF assay for P-ERK determination in A375 cells (BRAF inhibition); assay type: cell-based; conditions: Homo sapiens, A-375, 1 hour drug incubation, DMSO = 100%, 10 μM Dabrafenib = 0%, top concentration 10 μM, read-out: P-ERK_A375: IC50
Source text: as §1, §2, §3, §4, §5, §6
Data are normalized in the case of A375 cells (BRAF inhibition) considering the average of the ratio (blank subtracted) derived by DMSO only treated cells as 100% and by considering the average of the ratio (blank subtracted) derived by 10 μM Dabrafenib treated cells as 0%. Mean of the normalized points are fitted with sigmoidal curve and IC50 values are determined.

[4] = molecular target: BRAF V660E (Homo sapiens, UniProt P15056, V600E); experiment: KD BRAF V660E (Table 1; no method described); assay type: binding
Chain of BRAF V660E (P15056 2-766 V600E): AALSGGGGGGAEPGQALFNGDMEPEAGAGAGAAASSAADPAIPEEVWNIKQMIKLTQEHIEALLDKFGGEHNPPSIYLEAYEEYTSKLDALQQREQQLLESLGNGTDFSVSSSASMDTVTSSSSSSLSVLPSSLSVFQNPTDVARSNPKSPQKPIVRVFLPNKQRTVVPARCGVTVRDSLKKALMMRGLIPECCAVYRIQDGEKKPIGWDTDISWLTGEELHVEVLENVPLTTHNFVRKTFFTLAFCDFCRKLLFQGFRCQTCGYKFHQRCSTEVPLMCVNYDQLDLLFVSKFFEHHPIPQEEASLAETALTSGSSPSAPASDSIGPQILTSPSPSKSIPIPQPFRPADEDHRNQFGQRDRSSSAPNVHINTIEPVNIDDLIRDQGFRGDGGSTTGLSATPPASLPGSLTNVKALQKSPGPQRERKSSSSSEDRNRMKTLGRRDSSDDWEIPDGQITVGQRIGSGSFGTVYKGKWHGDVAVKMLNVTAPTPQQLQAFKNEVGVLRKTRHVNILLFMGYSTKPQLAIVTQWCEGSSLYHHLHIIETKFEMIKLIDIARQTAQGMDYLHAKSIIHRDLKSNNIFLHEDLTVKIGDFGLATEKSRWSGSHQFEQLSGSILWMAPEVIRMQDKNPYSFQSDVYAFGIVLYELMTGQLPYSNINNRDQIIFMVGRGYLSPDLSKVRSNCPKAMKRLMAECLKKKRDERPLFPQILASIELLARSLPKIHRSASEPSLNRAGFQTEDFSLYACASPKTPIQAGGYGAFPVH

Chain of BRAF (P15056 whole entry): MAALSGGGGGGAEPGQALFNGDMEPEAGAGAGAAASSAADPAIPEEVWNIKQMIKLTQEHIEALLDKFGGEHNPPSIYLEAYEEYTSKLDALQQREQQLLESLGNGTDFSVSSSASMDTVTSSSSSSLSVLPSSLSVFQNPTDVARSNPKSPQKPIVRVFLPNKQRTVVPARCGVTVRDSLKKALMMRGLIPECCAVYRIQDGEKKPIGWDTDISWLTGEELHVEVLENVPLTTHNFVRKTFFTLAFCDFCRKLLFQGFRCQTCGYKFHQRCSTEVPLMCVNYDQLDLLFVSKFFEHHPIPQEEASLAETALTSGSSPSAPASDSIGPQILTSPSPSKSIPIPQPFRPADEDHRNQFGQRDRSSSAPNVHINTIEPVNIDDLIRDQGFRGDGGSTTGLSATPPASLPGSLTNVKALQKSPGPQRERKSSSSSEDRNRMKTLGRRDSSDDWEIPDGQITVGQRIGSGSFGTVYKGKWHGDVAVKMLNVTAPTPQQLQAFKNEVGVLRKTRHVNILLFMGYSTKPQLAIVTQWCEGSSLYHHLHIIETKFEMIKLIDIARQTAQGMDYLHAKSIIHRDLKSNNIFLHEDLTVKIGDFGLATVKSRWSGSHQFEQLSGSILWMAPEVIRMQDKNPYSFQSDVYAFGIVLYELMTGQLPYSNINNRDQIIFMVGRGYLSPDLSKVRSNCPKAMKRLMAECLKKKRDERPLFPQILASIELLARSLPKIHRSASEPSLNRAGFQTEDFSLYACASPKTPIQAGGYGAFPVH

| Kd [1] | EC50 [2] | Fold Selectivity HCT-116 EC50-50/ A375 [2] | IC50 [3] | Kd [4] | Structure (SMILES) |
| --- | --- | --- | --- | --- | --- |
| 148 nM | ≥ 10000 nM | 14.6 | 687 nM | 296 nM | CNCCCNc1ncc2cc(-c3c(F)ccc(NS(=O)(=O)N4CC[C@@H](F)C4)c3F)c(=O)n(C)c2n1.Cl [Example 16, (3R)-N-[2,4-difluoro-3-[8-methyl-2-[3-(methylamino)propylamino]-7-oxopyrido[2,3-d]pyrimidin-6-yl]phenyl]-3-fluoropyrrolidine-1-sulfonamide hydrochloride] |
| 14.7 nM | 1370 nM | 40.9 | 33.4 nM | 53 nM | CC(=O)N1CCC(CCCNc2ncc3cc(-c4c(F)ccc(NS(=O)(=O)N5CC[C@@H](F)C5)c4F)c(=O)n(C)c3n2)CC1 [Example 28, (3R)-N-[3-[2-[3-(1-acetylpiperidin-4-yl)propylamino]-8-methyl-7-oxopyrido[2,3-d]pyrimidin-6-yl]-2,4-difluorophenyl]-3-fluoropyrrolidine-1-sulfonamide] |
| 62 nM | ≥ 10000 nM | >115.3 | 86.7 nM | 109 nM | CC(=O)N1CCC(CNc2ncc3cc(-c4c(F)ccc(NS(=O)(=O)N5CC[C@@H](F)C5)c4F)c(=O)n(C)c3n2)CC1 [Example 21, (3R)-N-[3-[2-[(1-acetylpiperidin-4-yl)methylamino]-8-methyl-7-oxopyrido[2,3-d]pyrimidin-6-yl]-2,4-difluorophenyl]-3-fluoropyrrolidine-1-sulfonamide] |
| 2.5 nM | 989 nM | 117.8 | 8.4 nM | 6.5 nM | CC(=O)N1Cc2ccc(CCNc3ncc4cc(-c5c(F)ccc(NS(=O)(=O)N6CC[C@@H](F)C6)c5F)c(=O)n(C)c4n3)cc2C1 [Example 49, (3R)—N-[3-[2-[2-(2-Acetyl-1,3-dihydroisoindol-5-yl)ethylamino]-8-methyl-7-oxopyrido[2,3-d]pyrimidin-6-yl]-2,4-difluorophenyl]-3-fluoropyrrolidine-1-sulfonamide] |
| 145 nM | ≥ 10000 nM | 2.6 | 3810 nM | 408 nM | Cl.O=c1c(-c2c(F)ccc(NS(=O)(=O)N3CC[C@@H](F)C3)c2F)cc2cnc(NCC3CC3)nc2n1C1CCNC1 (mixture of isomers) [Example 40, (3R)-N-[3-[2-(cyclopropylmethylamino)-7-oxo-8-[(3RS)-pyrrolidin-3-yl]pyrido[2,3-d]pyrimidin-6-yl]-2,4-difluorophenyl]-3-fluoropyrrolidine-1-sulfonamide hydrochloride] |
| 39.9 nM | ≥ 10000 nM | >211.0 | 47.4 nM | 99 nM | Cn1c(=O)c(-c2c(F)ccc(NS(=O)(=O)N3CC[C@@H](F)C3)c2F)cc2cnc(NCCOCCOCCO)nc21 [Example 4, (3R)-N-[2,4-difluoro-3-[2-[2-[2-(2-hydroxyethoxy)ethoxy]ethylamino]-8-methyl-7-oxopyrido[2,3-d]pyrimidin-6-yl]phenyl]-3-fluoropyrrolidine-1-sulfonamide] |
| 13.4 nM | ≥ 10000 nM | 1.0 | ≥ 10000 nM | 41.3 nM | Cl.NCCOCCOCCn1c(=O)c(-c2c(F)ccc(NS(=O)(=O)N3CC[C@@H](F)C3)c2F)cc2cnc(NCC3CC3)nc21 [Example 39, (3R)—N-[3-[8-[2-[2-(2-aminoethoxy)ethoxy]ethyl]-2-(cyclopropylmethylamino)-7-oxopyrido[2,3-d]pyrimidin-6-yl]-2,4-difluorophenyl]-3-fluoropyrrolidine-1-sulfonamide; hydrochloride] |
| 12.2 nM | 3180 nM | 72.3 | 44 nM | 26.8 nM | CC(=O)NCCCCCNc1ncc2cc(-c3c(F)ccc(NS(=O)(=O)N4CC[C@@H](F)C4)c3F)c(=O)n(C)c2n1 [Example 25, N-[5-[[6-[2,6-difluoro-3-[[(3R)-3-fluoropyrrolidin-1-yl]sulfonylamino]phenyl]-8-methyl-7-oxopyrido[2,3-d]pyrimidin-2-yl]amino]pentyl]acetamide] |
| 91.2 nM | 2170 nM | 70.5 | 30.8 nM | 282 nM | Cn1c(=O)c(-c2c(F)ccc(NS(=O)(=O)N3CC[C@@H](F)C3)c2F)cc2cnc(NC3CCCC3)nc21 [Example 7, (3R)-N-[3-[2-(cyclopentylamino)-8-methyl-7-oxopyrido[2,3-d]pyrimidin-6-yl]-2,4-difluorophenyl]-3-fluoropyrrolidine-1-sulfonamide] |
| 23.6 nM | ≥ 10000 nM | >51.1 | 196 nM | 70 nM | CC(=O)NCCOCCOCCNc1ncc2cc(-c3c(F)ccc(NS(=O)(=O)N4CC[C@@H](F)C4)c3F)c(=O)n(C)c2n1 [Example 32, N-[2-[2-[2-[[6-[2,6-difluoro-3-[[(3R)-3-fluoropyrrolidin-1-yl]sulfonylamino]phenyl]-8-methyl-7-oxopyrido[2,3-d]pyrimidin-2-yl]amino]ethoxy]ethoxy]ethyl]acetamide] |
| 20.1 nM | ≥ 10000 nM | >26.7 | 375 nM | 60.1 nM | CC(=O)NCCOCCNc1ncc2cc(-c3c(F)ccc(NS(=O)(=O)N4CC[C@@H](F)C4)c3F)c(=O)n(C)c2n1 [Example 29, N-[2-[2-[[6-[2,6-difluoro-3-[[(3R)-3-fluoropyrrolidin-1-yl]sulfonylamino]phenyl]-8-methyl-7-oxopyrido[2,3-d]pyrimidin-2-yl]amino]ethoxy]ethyl]acetamide] |
| 26.6 nM | 5920 nM | 33.7 | 176 nM | 56.6 nM | Cn1c(=O)c(-c2c(F)ccc(NS(=O)(=O)N3CC[C@@H](F)C3)c2F)cc2cnc(NCCc3cnc(CC(=O)OC(C)(C)C)nc3)nc21 [Example 48, tert-butyl 2-[5-[2-[[6-[2,6-difluoro-3-[[(3R)-3-fluoropyrrolidin-1-yl]sulfonylamino]phenyl]-8-methyl-7-oxopyrido[2,3-d]pyrimidin-2-yl]amino]ethyl]pyrimidin-2-yl]acetate] |
| 7.5 nM | 4100 nM | 59.4 | 69 nM | 21.1 nM | CC(=O)N[C@@H]1CC[C@@H](Nc2ncc3cc(-c4c(F)ccc(NS(=O)(=O)N5CC[C@@H](F)C5)c4F)c(=O)n(C)c3n2)C1 (racemic) [Example 23, N-[(1R,3R)-3-[[6-[2,6-difluoro-3-[[(3R)-3-fluoropyrrolidin-1-yl]sulfonylamino]phenyl]-8-methyl-7-oxopyrido[2,3-d]pyrimidin-2-yl]amino]cyclopentyl]acetamide AND N-[(1S,3S)-3-[[6-[2,6-difluoro-3-[[(3R)-3-fluoropyrrolidin-1-yl]sulfonylamino]phenyl]-8-methyl-7-oxopyrido[2,3-d]pyrimidin-2-yl]amino]cyclopentyl]acetamide] |
